From patent US20210085798A1, “IMMUNITY LINKER MOLECULES AND THEIR USE IN THE TREATMENT OF INFECTIOUS DISEASES” (CENTAURI THERAPEUTICS LIMITED, priority 2018, published 2021)

How the values were obtained:
E. coli K12 (NCTC 10538) = type: cell-based; details: 40 μM Polymyxin B, anti-Gal IgM M86 25 μg/mL, MFI (FITC) over vehicle control
Description: The assays were carried out in polystyrene 96-well U bottom plates (Costar). […] The samples were incubated for 1 hour at room temperature shaking at 450 rpm. […] Data from all samples were analysed using Kaluza software (Beckman Coulter).

[1] = tested on: P. aeruginosa (ATCC 27853); assay: Flow cytometric antibody recruitment assay using anti-Gal IgM antibody M86, P. aeruginosa; type: cell-based; details: anti-Gal IgM M86 40 μg/mL, MFI (FITC) over vehicle control
Description: Flow Cytometric Antibody Recruitment Assay Using an Anti-Galα1-3Galβ1-4GlcNAc (Anti-Gal) Antibody
A secondary fluorescently labelled anti-IgM antibody was used to detect the anti-Gal antibody binding.
The assays were carried out in polystyrene 96-well U bottom plates (Costar). Frozen stocks of P. aeruginosa (American Type Culture Collection, ATCC 27853) in mid-exponential phase were thawed, centrifuged and resuspended in LB broth, Miller (Fisher BP1426-500) at OD595=0.2. The bacteria were grown to mid-exponential phase (OD595=0.4), washed once with Hank's Balanced Salt Solution with calcium and magnesium (HBSS+/+) and then resuspended in HBSS+/+ at a bacterial OD595=0.6. […] After three final washes with 200 μL HBSS+/+, the bacteria were resuspended in 200 μL HBSS+/+ and evaluated for anti-Gal antibody binding on a Cytoflex flow cytometer (Beckman Coulter). 50,000 counts of bacterial particles were sampled and the median fluorescent shift was recorded in the FITC-A channel. Data from all samples were analysed using Kaluza software (Beckman Coulter). […] The fold shift over background was calculated by dividing the Median Fluorescent Intensity (MFI) obtained in the presence of 20 μM of the Example compounds by the MFI value obtained in the vehicle controls, i.e., the absence of Examples. […] The shift in fluorescence intensity (FITC) occurs due to the binding event at each end of the molecule.

Polymyxin B
IgM Recruitment (Average fold change) (E. coli K12 (NCTC 10538)): 4 fold change
IgM Recruitment (20 μM, Average fold change) [1]: 1 fold change
